Results published in patent US6034097A, “Isoquinolines useful as analgesics” (Astra AB, priority 1996, dated 2000).
Structures can show the parent of a compound that is named as a salt.

Columns and labels:
[1] = target: T1, κ receptor (Rattus norvegicus, UniProt P34975); assay: Radioligand binding assay, κ receptor (Table 1); details: binding inhibition constant
T1 construct: from tissue

[2] = system: μ receptors; assay: Guinea Pig Ileum (GPI) assay, longitudinal muscle preparation; assay type: cell-based
Description: (§1) The opioid activity of the peptides was assessed in vitro using the guinea pig ileum (GPI) longitudinal muscle preparation and their antinociceptive activity was determined in vivo in PBQ induced writhing models (peripheral activity) and in the hot-plate test (central activity) in rodents. […] Peripheral analgesia is shown by a high potency in the writhing test coupled with a low potency in the hot-plate test.
(§2) PBQ (phenyl-.rho.-benzoquinone) induced writhing in mice is an assessment of both central and peripheral analgesia. For experimental protocol see Sigmund et al., Proc. Soc. Exp. Biol. Med., 15, p. 729(1957) which is incorporated herein by reference. Central analgesia is determined by the inhibition of a hot-plate response in mice. For experimental protocol see G. Woolfe and A. Macdonald, J. Pharmacol. Exp. Ther., 80, p.300 (1944) which is incorporated herein by reference. Assays measuring opioid receptor binding affinities for μ and δ receptors as well as GPI and MVD assays are determined through experimental protocol set out in Schiller et al., Biophys. Res. Commun., 85, p.1322 (1975) incorporated herein by reference.
The activity of the peptide compounds on μ receptors was determined using the Guinea Pig Ileum (GPI) assay (longitudinal muscle preparation) according to the procedures described in Schiller et al., Biophys. Res. Commun., 85, p.1322 (1975).

[3] = target: T2, μ receptors (Rattus norvegicus, UniProt P33535); assay: Radioligand binding assay, μ receptor, (3H)-DAMGO, rat brain membranes; details: Ki from IC50 by Cheng and Prusoff
T2 construct: the brains minus cerebellum were removed and place in ice-cold saline solution and then homogenized; from tissue; host or cells: rat brain minus cerebellum, membrane homogenate
T2 sequence (P33535 whole entry): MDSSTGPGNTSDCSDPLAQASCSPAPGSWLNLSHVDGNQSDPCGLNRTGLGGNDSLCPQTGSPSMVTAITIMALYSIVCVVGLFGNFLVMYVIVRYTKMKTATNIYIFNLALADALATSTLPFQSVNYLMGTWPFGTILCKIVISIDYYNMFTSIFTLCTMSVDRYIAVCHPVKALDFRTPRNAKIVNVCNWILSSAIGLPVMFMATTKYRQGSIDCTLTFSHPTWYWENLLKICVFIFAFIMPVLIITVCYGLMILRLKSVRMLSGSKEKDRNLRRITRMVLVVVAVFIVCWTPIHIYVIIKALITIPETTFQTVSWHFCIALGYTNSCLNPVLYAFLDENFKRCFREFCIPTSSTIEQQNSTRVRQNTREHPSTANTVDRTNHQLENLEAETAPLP
Description: as §2
(§3) Male Sprague-Dawley rats weighing between 350-450 g were sacrificed by inhalation of CO2. The rats were decapitated and the brains minus cerebellum were removed and place in ice-cold saline solution and then homogenized in ice-cold 50 mM Tris buffer pH 7.4 (10 ml/brain). The membranes were centrifuged at 14000 rpm for 30 min. at 4° C. The pellets were re-suspended in approximately 6 ml/brain of ice-cold Tris buffer 50 mM pH 7.4 and stored at -78° C. until ready for use. Protein quantification of the brain homogenate was conducted according to protein assay kit purchased (Bio-Rad).
(§4) (^3 H)-DAMGO and (^3 H) DAGLE were used as radioligands for the μ and δ receptors, respectively. Radioligand 50 μl, membranes 100 μl and serially diluted test compound were incubated for 1 hr at 22° C. Non specific binding was determined using 500 fold excess of unlabeled ligand in the presence of tracer and membranes. Free ligand was separated from bound by filtration through Whatman GF/B paper (presoaked in polyethylenimine 1% aqueous solution) and rinsing with ice-cold 50 mM Tris pH 7.4 using a Brandel cell harvester. The filters were dried and radioactivity was counted in a 24 well microplate in the presence of […] scintillant per well. Radioactivity was measured using a Wallac 1450 Microbeta counter.
(§5) Ki's for the various compounds were determined from the IC50 according to the Cheng and Prusoff equation.

[4] = In vitro stability in rat whole blood (RWB) at 37° C.; assay type: in vitro ADME
Description: (§6) In vitro stability of the compounds of the invention in rat whole blood (RWB) at 37° C. and in kidney brush border protease (KBBP) at 37° C.
The compound was initially dissolved in water or in 10% methyl sulfoxide (DMSO)/water to make a stock solution of 10 mg/ml.
The stock solution was added to 15 ml of freshly harvested rat whole blood and incubated at 37° C.
Blanks were prepared without spiking with compounds in rat whole blood.
Aliquots were then taken at specific time intervals, centrifuged, and a fraction of the supernatant was extracted with acetonitrile or with a solution of acetonitrile and 10% acetic acid.
The solvent(s) was(were) removed by evaporation. The resulting residue was analyzed by HPLC.

[5] = system: kidney brush border protease (KBBP); assay: In vitro stability in kidney brush border protease (KBBP) at 37° C.; assay type: in vitro ADME; details: PBS pH 7.4, 37° C.; for Metabolites in KBBP: up to 1440 minutes
Description: as §6
1.0 mg of the compounds were dissolved in 1 ml PBS pH 7.4 and 500 µL of proteases (1.14 mg of protein/ml) were added.
An initial aliquot was taken at time 0, and the reaction was immediately stopped by placing the sample in a bath of boiling water for 2 minutes (the other time intervals were 5, 15, 30, 60, 120, 1440 minutes).
Blank samples without compounds were also prepared.
The aliquoted samples were filtered on a micron 0.45 filter and the resulting sample were analyzed by HPLC.

[6] = target: T3, δ receptors (Rattus norvegicus, UniProt P33533); assay: Radioligand binding assay, δ receptor, (3H) DAGLE, rat brain membranes; details: Ki from IC50 by Cheng and Prusoff
T3 construct: the brains minus cerebellum were removed and place in ice-cold saline solution and then homogenized; from tissue; host or cells: rat brain minus cerebellum, membrane homogenate
T3 sequence (P33533 whole entry): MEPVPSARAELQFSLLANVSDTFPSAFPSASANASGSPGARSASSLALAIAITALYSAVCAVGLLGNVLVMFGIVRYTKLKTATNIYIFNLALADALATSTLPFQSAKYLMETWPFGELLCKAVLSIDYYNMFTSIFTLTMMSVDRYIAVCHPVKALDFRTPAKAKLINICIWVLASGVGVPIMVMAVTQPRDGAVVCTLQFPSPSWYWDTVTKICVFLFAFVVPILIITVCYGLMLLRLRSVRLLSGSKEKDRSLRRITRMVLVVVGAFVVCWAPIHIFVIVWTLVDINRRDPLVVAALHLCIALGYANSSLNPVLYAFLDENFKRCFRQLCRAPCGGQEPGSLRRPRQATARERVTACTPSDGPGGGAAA
Description: as §2, §3
as §4, with “Free ligand was separated from bound by filtration through Whatman GF/B paper (presoaked in polyethylenimine 1% aqueous solution) and rinsing with ice-cold 50 mM Tris pH 7.4 using a Brandel cell harvester.” left out
as §5

[7] = system: CD #1 male mice; assay: PBQ (phenylquinone) induced writhing assay in mice; assay type: in vivo; details: compound by subcutaneous route, dose inducing 50% reduction in number of writhes vs control
Description: The term "ED50 " as shown in table 1 for the PBQ writhing assays is defined as the dose of drug which induces a 50% reduction in the number of writhes observed compared to the control. The term "ED50 " used in the hot-plate assays is defined as the dose of drug required to increase the latency of response 2-fold compared to controls and was determined by parallel-line probit analysis.
as §1, §2
The test was performed on CD #1 male mice weighing between 18 and 22 g. The mice were weighed and marked. They were injected, by intra-peritoneal route, with 0.3 ml/20 g by weight with a solution of phenylquinone at 0.02%. The contortions which appeared during a 15 minute time period following the injection were counted. The phenylquinone was injected at time intervals of 5, 20 or 60 minutes after administration of the compound (or medium, or standard) by subcutaneous route.
The 0.02% phenylquinone solution was prepared in the following fashion. […]

T1 sequence (P34975 whole entry): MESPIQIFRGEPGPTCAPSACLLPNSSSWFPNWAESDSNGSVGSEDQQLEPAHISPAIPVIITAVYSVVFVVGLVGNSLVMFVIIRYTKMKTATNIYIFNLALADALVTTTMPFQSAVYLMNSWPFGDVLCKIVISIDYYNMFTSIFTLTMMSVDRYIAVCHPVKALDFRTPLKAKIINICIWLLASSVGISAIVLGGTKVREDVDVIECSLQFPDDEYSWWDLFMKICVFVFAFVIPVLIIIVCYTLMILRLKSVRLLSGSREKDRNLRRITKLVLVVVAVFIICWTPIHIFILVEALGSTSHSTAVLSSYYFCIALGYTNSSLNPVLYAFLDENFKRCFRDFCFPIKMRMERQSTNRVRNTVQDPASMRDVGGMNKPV

| SMILES | IC50 [2] [nM] | Metabolites in RWB [4] | half life in RWB [4] [h] | half life in KBBP [5] [h] | Metabolites in KBBP [5] | Ki [6] [nM] | ED50 PBQ writhing [7] [mg/kg] | further results |
| --- | --- | --- | --- | --- | --- | --- | --- | --- |
| Cc1cc(O)cc(C)c1CC(NC(=N)N)C(=O)N1Cc2ccccc2C[C@H]1C(=O)NC[C@H](O)Cc1ccccc1 (some centres unmarked) [compound #3B, 2-(2-Guanidino-3-(4-hydroxy-2,6-dimethyl-phenyl)-propionyl)-1,2,3,4-tetrahydro-isoquinoline-3-S-carboxylic acid (2-R-hydroxy-3-phenyl-propyl)-amide ditrifloroacetic salt] | 7.3 | – | – | – | – | – | – | Ki ([1]; listed as #3B): 164 ± 17.5 nM; Ki ([3]; listed as #3B): 0.5 nM |
| Cc1cc(O)cc(C)c1CC(N)C(=O)N1Cc2ccccc2CC1C(=O)NCCCc1ccccc1.O=C(O)C(F)(F)F (centres unmarked) [compound #5B, 2-(2-Amino-3-(4-Hydroxy-2,6-dimethyl-phenyl)-propionyl)-1,2,3,4-tetrahydro-isoquinoline-3-carboxylic acid (3-phenyl-propyl)amide trifluoroacetic salt] | – | none detected | > 20 | > 24 | none detected | – | – | – |
| Cc1cc(O)cc(C)c1CC(N)C(=O)N1Cc2ccccc2C[C@H]1C(=O)NCCCc1ccccc1.O=C(O)C(F)(F)F (some centres unmarked) [compound #6A, 2-(2-Amino-3-(4-Hydroxy-2,6-dimethyl-phenyl)-propionyl)-1,2,3,4-tetrahydro-isoquinoline-3-S-carboxylic acid (3-phenyl-propyl)amide trifluoroacetic salt] | 5.1 | – | – | – | – | 0.84 ± 0.08 | 2.4 | Ki [1]: 49.6 ± 8.7 nM; Ki [3]: 0.11 ± 0.02 nM |
| Cc1cc(O)cc(C)c1CC(NC(=N)N)C(=O)N1Cc2ccccc2C[C@H]1C(=O)NC[C@H](O)Cc1ccccc1 (some centres unmarked) [compound #3, 2-(2-Guanidino-3-(4-hydroxy-2,6-dimethyl-phenyl)-propionyl)-1,2,3,4-tetrahydro-isoquinoline-3-S-carboxylic acid (2-R-hydroxy-3-phenyl-propyl)-amide ditrifloroacetic salt] | – | – | – | – | – | 0.56 ± 0.09 | – | Ki ([1]; listed as #3): 277 ± 13.6 nM; Ki ([3]; listed as #3): 2.03 ± 0.37 nM |
| Cc1cc(O)cc(C)c1C[C@H](N)C(=O)N1Cc2ccccc2C[C@H]1C(=O)NCC(O)Cc1ccccc1.O=C(O)C(F)(F)F (stereo partly drawn) [4B, 2-S-(2-Amino-3-(4-hydroxy-2,6-dimethyl-phenyl)-propionyl)-1,2,3,4-tetrahydro-isoquinoline-3-S-carboxylic acid (2-hydroxy-3-phenyl-propyl)amide trifluoroacetic salt] | 13.8 | none detected | > 5.32 | > 24 | none detected | 0.1 ± 0.02 | 16.6 | Ki [1]: 20.6 ± 0.5 nM; Ki [3]: 0.7 ± 0.27 nM |
| Cc1cc(O)cc(C)c1CC(NC(=N)N)C(=O)N1Cc2ccccc2C[C@H]1C(=O)NC[C@H](O)Cc1ccccc1.O=C(O)C(F)(F)F.O=C(O)C(F)(F)F (some centres unmarked) [compound #3A, 2-(2-Guanidino-3-(4-hydroxy-2,6-dimethyl-phenyl)-propionyl)-1,2,3,4-tetrahydro-isoquinoline-3-S-carboxylic acid (2-R-hydroxy-3-phenyl-propyl)-amide ditrifloroacetic salt] | – | – | – | – | – | – | 3.8 | Ki ([1]; listed as #3A): 952 ± 122 nM; Ki ([3]; listed as #3A): 2.94 ± 0.73 nM |
| Cc1cc(O)cc(C)c1CC(N)C(=O)N1Cc2ccccc2C[C@H]1C(=O)NCCCc1ccccc1.O=C(O)C(F)(F)F (some centres unmarked) [compound #5A, 2-(2-Amino-3-(4-Hydroxy-2,6-dimethyl-phenyl)-propionyl)-1,2,3,4-tetrahydro-isoquinoline-3-S-carboxylic acid (3-phenyl-propyl)amide trifluoroacetic salt] | – | none detected | > 24 | > 24 | none detected | – | – | – |
| Cc1cc(O)cc(C)c1C[C@H](N)C(=O)N1Cc2ccccc2C[C@H]1C(=O)NCC(O)Cc1ccccc1.O=C(O)C(F)(F)F (stereo partly drawn) [compound #4A, 2-S-(2-Amino-3-(4-hydroxy-2,6-dimethyl-phenyl)-propionyl)-1,2,3,4-tetrahydro-isoquinoline-3-S-carboxylic acid (2-hydroxy-3-phenyl-propyl)amide trifluoroacetic salt] | – | none detected | > 2.1 | > 24 | 1 detected after | – | – | – |
